Laboratory results as given in patent US6706709B2, “Indolinone derivatives as protein kinase/phosphatase inhibitors” (Sugen, Inc., priority 2000, dated 2004).

Key:
GST-Flk1 = GST-Flk1 (UniProt P35918); experiment: GST-FLK-1 bioassay (bio flkGST); format: biochemical
Protocol: This assay analyzes the tyrosine kinase activity of GST-Flk1 on poly glu tyr peptides.
2. poly glu tyr 4:1, lyophilizate (Sigma Catalog # P0275). Prepare 1 mg/mL poly glu tyr in sterile PBS and store in 1 ml aliquots at −20° C.
3. Preparation of poly glu tyr (pEY) coated assay plates: Coat 2 μg/well of poly glu tyr (pEY) in 100 μL PBS at room temperature for 2 hours or at +4° C. overnight. Cover plates well to prevent evaporation.
4. PBS Buffer: To make 1 liter of a 1× working solution, mix […], 1.15 g NA2HPO4, 0.2 g KCl and 8 g NaCl in approx. 900 mL dH2O. When all reagents have dissolved, adjust the pH to 7.2 with HCl. Bring total volume to 1L with dH2O.
5. PBS-Tw Buffer: To 1L of PBS Buffer, add […] Tween-20. Stir until dissolved.
6. TBB-Blocking Buffer: To make one liter of a 1× working solution, mix 1.21 g TRIS, 8.77 g NaCl, 1 mL TWEEN-20 in approximately 900 mL dH2O. Adjust pH to 7.2 with HCl. Add 10 g BSA, stir to dissolve. Bring total volume to 1 L with dH2O. Filter to remove particulate matter.
7. 1% BSA in PBS: To make a 1× working solution, add 10 g BSA to approx. 990 mL PBS buffer, stir to dissolve. Adjust total volume to 1 L with PBS buffer, filter to remove particulate matter.
9. GST-Flk1cd purified from sf9 recombinant baculovirus transformation.
13. Kinase Dilution Buffer (KDB): Mix 10 mL Hepes (pH 7.5), 1 mL of 5 M NaCl, 40 μL of 100 mM NaVO4 and 0.4 mL of 5% BSA in dH2O with 88.56 mL of dH2O.
14. NUNC-96-well V bottom polypropylene plates Applied Scientific Catalog # AS-72092
15. EDTA: Mix 14.12 g ethylenediaminetetraacetic acid (EDTA) to approx. 70 mL dH2O. Add 10N NaOH until EDTA dissolves. Adjust pH to 8.0. Adjust total volume to 100 mL with dH2O.
16. 1° Antibody Dilution Buffer: Mix 10 mL of 5% BSA in PBS buffer with 89.5 mL TBSTw.
17. Anti-phosphotyrosine monoclonal conjugated to horseradish peroxidase (PY99 HRP, Santa Cruz Biotech).
18. 2,2′-Azino-bis(3-ethylbenzthiazoline-6-sulfonic acid (ABTS, Moss, Cat. No. ABST).
1. Coat Corning 96 well ELISA plates with 2 μg of polyEY peptide in sterile PBS as described in step 3 of Materials and Reagents.
2. Remove unbound liquid from wells by inverting plate. Wash once with TBSTw. Pat the plate on a paper towel to remove excess liquid.
3. Add 100 μL of 1% BSA in PBS to each well. Incubate, with shaking, for 1 hr. at room temperature.
5. Soak wells with 50 mM Hepes pH7.5 (150 μL/well).
6. Dilute test compound with dH2O/4% DMSO to 4 times the desired final assay concentration in 96-well polypropylene plates.
7. Add 25 μL diluted test compound to ELISA plate.
8. Add 25 μL of 40 mM MnCl2 with 4×ATP (2 μM) to all wells.
9. Add 25 μL 0.5 M EDTA to negative control wells.
10. Dilute GST-Flk1 0.005 μg (5 ng)/well in KDB. For 50 ml KDB add 100 μL of 0.050 mg/mL GST-Flk1 enzyme.
11. Add 50 μL of diluted enzyme to each well.
12. Incubate, with shaking, for 15 minutes at room temperature.
13. Stop reaction by adding 50 μL of 250 mM EDTA (pH 8.0).
14. Wash 3× with TBSTw and pat plate on paper towel to remove excess liquid.
15. Add 100 μL per well anti-phosphotyrosine HRP conjugate, 1:5,000 dilution in antibody dilution buffer. Incubate, with shaking for 90 min. at room temperature.
16. Wash as described above in step 14.
17. Add 100 μL of room temperature ABTS solution to each well.
18. Incubate, with shaking, for 10 to 15 minutes. Remove any bubbles.
19. Stop reaction by adding 20 μL of 10% SDS.
20. Read assay on Dynatech MR7000 ELISA reader: test filter at 410 nM; reference filter at 630 nM.

EGF Receptor = target: T1, EGF Receptor (Homo sapiens, UniProt P00533); experiment: bio EGF (EGF Receptor ELISA); format: biochemical
T1 construct: expressed in transfected cells; host or cells: NIH 3T3/C7 (mouse fibroblasts engineered to express human EGF-R)
Protocol: EGF Receptor kinase activity in cells genetically engineered to express human EGF-R was measured as described below:
The following materials and reagents were used:
b. 05-101 (UBI) (a monoclonal antibody recognizing an EGFR extracellular domain).
c. Anti-phosphotyrosine antibody (anti-Ptyr) (polyclonal).
d. Detection antibody: Goat anti-rabbit lgG horse radish peroxidase conjugate, TAGO, Inc., Burlingame, Calif.
Keep solution in dark at 4° C. until used.
The following protocol was used:
1. […] Coated plates are good for up to 10 days when stored at 4° C.
2. On day of use, remove coating buffer and replace with blocking buffer (5% Carnation Instant Non-Fat Dry Milk in PBS). Incubate the plate, shaking, at room temperature (about 23° C. to 25° C.) for 30 minutes. Just prior to use, remove blocking buffer and wash plate 4 times with TBST buffer.
2. Choose dishes having 80-90% confluence for the experiment. Trypsinize cells and stop reaction by adding 10% CS DMEM medium. Suspend cells in DMEM medium (10% CS DMEM medium) and centrifuge once at 1000 rpm at room temperature for 5 minutes.
3. Resuspend cells in seeding medium (DMEM, 0.5% bovine serum), and count the cells using trypan blue. Viability above 90% is acceptable. Seed cells in DMEM medium (0.5% bovine serum) at a density of 10,000 cells per well, 100 μL per well, in a 96 well microtiter plate. Incubate seeded cells in 5% CO2 at 37° C. for about 40 hours.
1. Check seeded cells for contamination using an inverted microscope. Dilute drug stock (10 mg/ml in DMSO) 1:10 in DMEM medium, then transfer 5 μL to a test well for a final drug dilution of 1:200 and a final DMSO concentration of 1%. Control wells receive DMSO alone. Incubate in 5% CO2 at 37° C. for one hour.
2. Prepare EGF ligand: dilute stock EGF in DMEM so that upon transfer of 10 μL dilute EGF (1:12 dilution), 25 nM final concentration is attained.
3. Prepare fresh 10 ml HNTG* sufficient for 100 μL per well wherein HNTG* comprises: HNTG stock (2.0 mL), milli-Q H2O (7.3 mL), EDTA, 100 mM, pH 7.0 (0.5 mL), Na3VO4 0.5 M (0.1 mL) and Na4(P2O7), 0.2 M (0.1 mL).
5. After two hours incubation with drug, add prepared EGF ligand to cells, 10 μL per well, to yield a final concentration of 25 nM. Control wells receive DMEM alone. Incubate, shaking, at room temperature, for 5 minutes.
6. Remove drug, EGF, and DMEM. Wash cells twice with PBS. Transfer HNTG* to cells, 100 μL per well. Place on ice for 5 minutes. Meanwhile, remove blocking buffer from other ELISA plate and wash with TBST as described above.
7. With a pipette tip securely fitted to a micropipettor, scrape cells from plate and homogenize cell material by repeatedly aspirating and dispensing the HNTG* lysis buffer. Transfer lysate to a coated, blocked, and washed ELISA plate. Incubate shaking at room temperature for one hour.
8. Remove lysate and wash 4 times with TBST. Transfer freshly diluted anti-Ptyr antibody to ELISA plate at 100 μL per well. Incubate shaking at room temperature for 30 minutes in the presence of the anti-Ptyr antiserum (1:3000 dilution in TBST).
9. Remove the anti-Ptyr antibody and wash 4 times with TBST. Transfer the freshly diluted TAGO 30 anti-rabbit IgG antibody to the ELISA plate at 100 μL per well. Incubate shaking at room temperature for 30 minutes (anti-rabbit IgG antibody: 1:3000 dilution in TBST).
10. Remove detection antibody and wash 4 times with TBST. Transfer freshly prepared ABTS/H2O2 solution to ELISA plate, 100 μL per well. Incubate at room temperature for 20 minutes. ABTS/H2O2 solution: 1.2 μL 30% H2O2in 10 mL ABTS stock.
11. Stop reaction by adding 50 μL 5N H2SO4 (optional), and determine O.D. at 410 nm.
12. The maximal phosphotyrosine signal is determined by subtracting the value of the negative controls from the positive controls. The percent inhibition of phosphotyrosine content for extract-containing wells is then calculated, after subtraction of the negative controls.

T1 sequence (P00533 25-1210): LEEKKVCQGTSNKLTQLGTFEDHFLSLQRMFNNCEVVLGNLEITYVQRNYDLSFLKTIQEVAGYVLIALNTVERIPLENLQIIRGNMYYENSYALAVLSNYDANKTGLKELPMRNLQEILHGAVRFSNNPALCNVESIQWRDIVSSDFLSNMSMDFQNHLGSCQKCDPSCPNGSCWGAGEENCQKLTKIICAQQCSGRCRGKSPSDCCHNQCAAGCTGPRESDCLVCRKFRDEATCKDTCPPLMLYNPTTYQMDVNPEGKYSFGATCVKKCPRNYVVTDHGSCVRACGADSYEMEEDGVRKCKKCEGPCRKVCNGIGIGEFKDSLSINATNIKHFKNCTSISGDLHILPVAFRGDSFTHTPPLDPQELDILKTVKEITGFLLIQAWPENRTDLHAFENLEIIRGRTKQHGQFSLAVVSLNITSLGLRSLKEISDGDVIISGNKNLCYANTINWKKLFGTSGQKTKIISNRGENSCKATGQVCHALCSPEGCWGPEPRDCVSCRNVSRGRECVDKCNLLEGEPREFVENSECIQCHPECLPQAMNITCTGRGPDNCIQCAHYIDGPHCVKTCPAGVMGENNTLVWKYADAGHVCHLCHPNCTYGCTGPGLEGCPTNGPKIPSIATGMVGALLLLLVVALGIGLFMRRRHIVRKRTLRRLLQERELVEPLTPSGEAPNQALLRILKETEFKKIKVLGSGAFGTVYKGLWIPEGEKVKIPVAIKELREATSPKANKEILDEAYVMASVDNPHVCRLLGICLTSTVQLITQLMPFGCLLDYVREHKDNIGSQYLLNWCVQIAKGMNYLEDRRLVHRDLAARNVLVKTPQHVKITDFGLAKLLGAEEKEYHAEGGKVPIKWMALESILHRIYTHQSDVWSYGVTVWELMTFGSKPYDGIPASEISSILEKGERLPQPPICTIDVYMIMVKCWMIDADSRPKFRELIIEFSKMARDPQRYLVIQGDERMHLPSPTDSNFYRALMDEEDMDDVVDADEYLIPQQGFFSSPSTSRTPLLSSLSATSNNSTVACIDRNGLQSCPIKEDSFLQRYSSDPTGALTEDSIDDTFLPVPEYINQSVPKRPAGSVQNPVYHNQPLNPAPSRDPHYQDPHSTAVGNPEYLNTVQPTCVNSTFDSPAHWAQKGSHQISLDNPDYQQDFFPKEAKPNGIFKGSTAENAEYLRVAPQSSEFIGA

With `O=C1Nc2ccc(-c3ccccc3)cc2C1=Cc1cc2cc(OCCN3CCOCC3)ccc2[nH]1` [IN-032, 3-[5-(2-morpholin-4-yl-ethoxy)-1H-indol-2-ylmethylene]-5-phenyl-1,3-dihydro-indol-2-one] the IC50 (GST-Flk1) was 1.47 µM and the IC50 (EGF Receptor) was greater than 20 µM.
`O=C1Nc2cccc(CCO)c2C1=Cc1cc2cc(OCCN3CCOCC3)ccc2[nH]1` [IN-033, 4-(2-hydroxy-ethyl)-3-[5-(2-morpholin-4-yl-ethoxy)-1H-indol-2-ylmethylene]-1,3-dihydro-indol-2-one] gave an IC50 (GST-Flk1) of less than 0.009 µM and an IC50 (EGF Receptor) of 8.2 µM.
For `O=C1Nc2cc(-c3cccnc3)ccc2C1=Cc1cc2cc(OCCN3CCOCC3)ccc2[nH]1` [IN-034, 3-[5-(2-morpholin-4-yl-ethoxy)-1H-indol-2-ylmethylene]-6-pyridin-3-yl-1,3-dihydro-indol-2-one], the IC50 (GST-Flk1) was 14 µM and the IC50 (EGF Receptor) was greater than 20 µM.
For `COc1ccc(-c2ccc3c(c2)NC(=O)C3=Cc2cc3cc(OCCN4CCOCC4)ccc3[nH]2)cc1` [IN-035, 6-(4-methoxy-phenyl)-3-[5-(2-morpholin-4-yl-ethoxy)-1H-indol-2-ylmethylene]-1,3-dihydro-indol-2-one], the IC50 (GST-Flk1) was greater than 20 µM and the IC50 (EGF Receptor) was greater than 20 µM.
`COc1cccc(-c2ccc3c(c2)NC(=O)C3=Cc2cc3cc(OCCN4CCOCC4)ccc3[nH]2)c1` [IN-036, 6-(3-methoxy-phenyl)-3-[5-(2-morpholin-4-yl-ethoxy)-1H-indol-2-ylmethylene]-1,3-dihydro-indol-2-one] was tested, and the IC50 (GST-Flk1) was greater than 20 µM and the IC50 (EGF Receptor) was greater than 20 µM.
In the case of `COc1ccccc1-c1ccc2c(c1)NC(=O)C2=Cc1cc2cc(OCCN3CCOCC3)ccc2[nH]1` [IN-037, 6-(2-methoxy-phenyl)-3-[5-(2-morpholin-4-yl-ethoxy)-1H-indol-2-ylmethylene]-1,3-dihydro-indol-2-one], the IC50 (GST-Flk1) is reported as 4.38 µM and the IC50 (EGF Receptor) is reported as greater than 20 µM.
`O=C1Nc2cc(-c3ccc(F)cc3)ccc2C1=Cc1cc2cc(OCCN3CCOCC3)ccc2[nH]1` [IN-038, 6-(4-fluoro-phenyl)-3-[5-(2-morpholin-4-yl-ethoxy)-1H-indol-2-ylmethylene]-1,3-dihydro-indol-2-one] showed an IC50 (GST-Flk1) greater than 10 µM and an IC50 (EGF Receptor) greater than 20 µM.
For `NS(=O)(=O)c1ccc2c(c1)C(=Cc1cc3cc(OCCN4CCCC4)ccc3[nH]1)C(=O)N2` [IN-039, 2-oxo-3-[5-(2-pyrrolidin-1-yl-ethoxy)-1H-indol-2-ylmethylene]-2,3-dihydro-1H-indole-5-sulfonic acid amide], the IC50 (GST-Flk1) was 0.17 µM and the IC50 (EGF Receptor) was greater than 100 µM.
For `NS(=O)(=O)c1ccc2c(c1)C(=Cc1cc3cc(OCCN4CCOCC4)ccc3[nH]1)C(=O)N2` [IN-040, 3-[5-(2-morpholin-4-yl-ethoxy)-1H-indol-2-ylmethylene]-2-oxo-2,3-dihydro-1H-indole-5-sulfonic acid amide], the IC50 (GST-Flk1) was 0.21 µM and the IC50 (EGF Receptor) was greater than 100 µM.
For `CNS(=O)(=O)c1ccc2c(c1)C(=Cc1cc3cc(OCCN4CCCC4)ccc3[nH]1)C(=O)N2` [IN-041, 2-oxo-3-[5-(2-pyrrolidin-1-yl-ethoxy)-1H-indol-2-ylmethylene]-2,3-dihydro-1H-indole-5-sulfonic acid methylamide], the IC50 (GST-Flk1) was 0.21 µM and the IC50 (EGF Receptor) was 8.43 µM.
For `CN(C)S(=O)(=O)c1ccc2c(c1)C(=Cc1cc3cc(OCCN4CCCC4)ccc3[nH]1)C(=O)N2` [IN-042, 2-oxo-3-[5-(2-pyrrolidin-1-yl-ethoxy)-1H-indol-2-ylmethylene]-2,3-dihydro-1H-indole-5-sulfonic acid dimethylamide], the IC50 (GST-Flk1) was 1.34 µM and the IC50 (EGF Receptor) was 7.84 µM.
Compound `CC(C)NS(=O)(=O)c1ccc2c(c1)C(=Cc1cc3cc(OCCN4CCCC4)ccc3[nH]1)C(=O)N2` [IN-043, 2-oxo-3-[5-(2-pyrrolidin-1-yl-ethoxy)-1H-indol-2-ylmethylene]-2,3-dihydro-1H-indole-5-sulfonic acid isopropylamide] has an IC50 (GST-Flk1) of 0.27 µM and an IC50 (EGF Receptor) of 4.35 µM.
With `O=C1Nc2ccc(S(=O)(=O)Nc3ccccc3)cc2C1=Cc1cc2cc(OCCN3CCCC3)ccc2[nH]1` [IN-044, 2-oxo-3-[5-(2-pyrrolidin-1-yl-ethoxy)-1H-indol-2-ylmethylene]-2,3-dihydro-1H-indole-5-sulfonic acid phenylamide] the IC50 (GST-Flk1) was 0.18 µM and the IC50 (EGF Receptor) was 1.69 µM.
